# Experimental data: US20120016019A1, “PHARMACEUTICAL COMPOSITION FOR TREATING OR PREVENTING CANCER” (priority 2010, published 2012)
# Values joined by “and” are separate entries in the source; they are usually repeats but may differ in a detail not shown here. Identical values can stand only once. “Also recorded” adds a separate entry of the source. Like-named read-outs stand apart in the source and are kept apart here.
# How the values were obtained:
# Type in all cases: cell-based
# MCF-7 = assay: Cell counts, MCF-7; settings: for cell counts: single wells
# Procedure: (§4) Cancer cell lines HCC 1419, MCF-7, MDA-MB-468, SKBR3, PC3, HT1299, Saos-2, C-6, AsPc, MDA-MB-231, RKO, HeLa and TT, and normal cell lines HME 50 HT, BJ and CCD-1074sk were tested for changes in metabolism (XTT assay) and cell death (cell counts).
# (§5) Cells were plated into 48-well Corning CellBind™ plates at densities of 20,000 cells for normal cells and 10,000˜20,000 cells for cancer cells. 24 to 48 h after plating, cells were treated with the composition according to the invention at concentrations of 4.5e-2M. The first time point treated with the composition of the invention is 0 h. At 3 days after the first treatment with the composition of the invention, medium was changed and the composition of the invention at the same concentrations were added to the cultured cells.
# (§6) Cells were harvested using Trypsin-EDTA at the designated time points. […] Two 48-well plates were used per cell line, and they were measured at 0 h, 12 h, 24 h, 48 h, 4 d and 7 d, respectively.
# (§7) In the 1st plate, cells were treated with the composition according to the invention and medium was changed at 0 h and 3 d. […] As a result, LC-50 curves were generated in the 1st week.
# MDA-MB-468 = assay: Cell counts, MDA-MB-468; settings: for cell counts: single wells
# Procedure: as §4, §5, §6, §7
# AsPc = assay: Cell counts, AsPc
# Procedure: as §4, §5, §6, §7
# At 0 h of the 2nd week, medium was exchanged with untreated medium for the remainder of the experiment. […] As a result, Recovery curves were generated in the 2nd week.
# HeLa = assay: Cell counts, HeLa
# Procedure: (§1) As a result, LC-50 curves were generated in the 1st week.
# (§2) In the 2nd plate, 7 d of the 1st week (LC-50) is the same as 0 h of the 2nd week (recovery).
# (§3) At 0 h of the 2nd week, medium was exchanged with untreated medium for the remainder of the experiment. The untreated controls were not measured in the 2nd week (recovery) due to overconfluence by the end of the 1st week. As a result, Recovery curves were generated in the 2nd week.
# HME 50 HT = settings: for cell counts: single count
# Procedure: as §1, §2, §3
# Human Mammary Epithelial (HME) cells were derived from adjacent normal tissue.
# [1] = HME 50 HT, 1st week (LC50), 0 h
# [2] = HME 50 HT, 1st week (LC50), 12 h
# [3] = HME 50 HT, 1st week (LC50), 24 h
# [4] = HME 50 HT, 1st week (LC50), 48 h
# [5] = HME 50 HT, 1st week (LC50), 4 d
# [6] = HME 50 HT, 1st week (LC50), 7 d
compound,measurement,setting,value
CC(=O)O[C@H]1C(=O)[C@@]2(C)[C@H]([C@H](OC(=O)c3ccccc3)[C@]3(O)C[C@H](OC(=O)[C@H](O)[C@@H](NC(=O)c4ccccc4)c4ccccc4)C(C)=C1C3(C)C)[C@]1(OC(C)=O)CO[C@@H]1C[C@@H]2O [Taxol],"cell counts, Mean value","MCF-7; 1st week (LC50), 0 h",55333
same,cell counts,"MCF-7; 1st week (LC50), 0 h",39000 and 67000 and 60000
same,"cell counts, Mean value","MCF-7; 1st week (LC50), 24 h",43667
same,cell counts,"MCF-7; 1st week (LC50), 24 h",39000 and 54000 and 38000
same,"cell counts, Mean value","MCF-7; 1st week (LC50), 48 h",23333
same,cell counts,"MCF-7; 1st week (LC50), 48 h",21000 and 19000 and 30000
same,"cell counts, Mean value","MCF-7; 1st week (LC50), 4 d",21667
same,"cell counts, Mean value","MCF-7; 1st week (LC50), 7 d",4333
same,cell counts,"MCF-7; 1st week (LC50), 7 d",4000 and 5000
same,"cell counts, Mean value","MCF-7; 2nd week (recovery), 0 h",2032
same,cell counts,"MCF-7; 2nd week (recovery), 0 h",2361 and 1648 and 2087
same,"cell counts, Mean value","MCF-7; 2nd week (recovery), 24 h",646
same,cell counts,"MCF-7; 2nd week (recovery), 24 h",807 and 728
same,"cell counts, Mean value","MCF-7; 2nd week (recovery), 48 h",2084
same,cell counts,"MCF-7; 2nd week (recovery), 48 h",1726 and 2010 and 2517
same,"cell counts, Mean value","MCF-7; 2nd week (recovery), 4 d",2013
same,cell counts,"MCF-7; 2nd week (recovery), 4 d",2135 and 1892 and 2011
same,"cell counts, Mean value","MCF-7; 2nd week (recovery), 7 d",1772
same,cell counts,"MCF-7; 2nd week (recovery), 7 d",2098 and 1693 and 1524
same,cell counts (trend),MDA-MB-468,increasing; also recorded: again recovering
same,"cell counts, Mean value","MDA-MB-468; 1st week (LC50), 0 h",36000
same,cell counts,"MDA-MB-468; 1st week (LC50), 0 h",32000 and 40000
same,"cell counts, Mean value","MDA-MB-468; 1st week (LC50), 24 h",23333
same,cell counts,"MDA-MB-468; 1st week (LC50), 24 h",24000 and 30000 and 16000
same,"cell counts, Mean value","MDA-MB-468; 1st week (LC50), 48 h",13000
same,cell counts,"MDA-MB-468; 1st week (LC50), 48 h",10000 and 12000 and 17000
same,"cell counts, Mean value","MDA-MB-468; 1st week (LC50), 4 d",17667
same,cell counts,"MDA-MB-468; 1st week (LC50), 4 d",15000 and 18000 and 20000
same,"cell counts, Mean value","MDA-MB-468; 1st week (LC50), 7 d",9000
same,"cell counts, Mean value","MDA-MB-468; 2nd week (recovery), 0 h",8333
same,"cell counts, Mean value","MDA-MB-468; 2nd week (recovery), 24 h",3667
same,cell counts,"MDA-MB-468; 2nd week (recovery), 24 h",4000 and 3000
same,"cell counts, Mean value","MDA-MB-468; 2nd week (recovery), 48 h",8333
same,"cell counts, Mean value","MDA-MB-468; 2nd week (recovery), 4 d",9333
same,cell counts,"MDA-MB-468; 2nd week (recovery), 4 d",9000 and 10000
same,"cell counts, Mean value","MDA-MB-468; 2nd week (recovery), 7 d",11667
same,cell counts,"MDA-MB-468; 2nd week (recovery), 7 d",9000 and 11000 and 15000
same,process of cell death (microscopy),AsPc,"cell membranes were ruptured by toxicity of Taxol, and then nuclei of cells changed into black"
same,cell counts,"AsPc; 1st week (LC50), 0 h",2340 and 2039 and 2111
same,"cell counts, Mean value","AsPc; 1st week (LC50), 0 h",2163
same,cell counts,"AsPc; 1st week (LC50), 12 h",2833 and 2279 and 2550
same,"cell counts, Mean value","AsPc; 1st week (LC50), 12 h",2554
same,cell counts,"AsPc; 1st week (LC50), 24 h",2336 and 2161 and 2310
same,"cell counts, Mean value","AsPc; 1st week (LC50), 24 h",2269
same,cell counts,"AsPc; 1st week (LC50), 48 h",2810 and 2130 and 1800
same,cell counts,"AsPc; 1st week (LC50), 4 d",2007 and 2100
same,"cell counts, Mean value","AsPc; 1st week (LC50), 4 d",2042
same,cell counts,"AsPc; 1st week (LC50), 7 d",2174 and 1902
same,"cell counts, Mean value","AsPc; 1st week (LC50), 7 d",1823
same,cell counts,"AsPc; 2nd week (recovery), 0 h",1213 and 1770
same,cell counts,"AsPc; 2nd week (recovery), 48 h",1210 and 1202
same,"cell counts, Mean value","AsPc; 2nd week (recovery), 4 d",631
same,cell counts,"AsPc; 2nd week (recovery), 7 d",73 and 85
same,"cell counts, Mean value","AsPc; 2nd week (recovery), 7 d",86
same,cell counts,"HeLa; 1st week (LC50), 0 h",158000 and 136000 and 184000
same,"cell counts, Mean value","HeLa; 1st week (LC50), 0 h",159333
same,cell counts,"HeLa; 1st week (LC50), 24 h",158000 and 276000 and 219000
same,"cell counts, Mean value","HeLa; 1st week (LC50), 24 h",217667
same,cell counts,"HeLa; 1st week (LC50), 48 h",105000 and 70000 and 79000
same,"cell counts, Mean value","HeLa; 1st week (LC50), 48 h",84667
same,cell counts,"HeLa; 1st week (LC50), 4 d",26000 and 39000 and 31000
same,"cell counts, Mean value","HeLa; 1st week (LC50), 4 d",32000
same,cell counts,"HeLa; 1st week (LC50), 7 d",36000 and 34000 and 32000
same,"cell counts, Mean value","HeLa; 1st week (LC50), 7 d",34000
same,cell counts,"HeLa; 2nd week (recovery), 0 h",31000 and 34000 and 35000
same,"cell counts, Mean value","HeLa; 2nd week (recovery), 0 h",33333
same,"cell counts, Mean value","HeLa; 2nd week (recovery), 24 h",23333
same,cell counts,"HeLa; 2nd week (recovery), 48 h",12000 and 23500 and 22000
same,"cell counts, Mean value","HeLa; 2nd week (recovery), 48 h",19167
same,cell counts,"HeLa; 2nd week (recovery), 4 d",22000 and 18000 and 13000
same,"cell counts, Mean value","HeLa; 2nd week (recovery), 4 d",17667
same,cell counts,"HeLa; 2nd week (recovery), 7 d",18000
same,"cell counts, Mean value","HeLa; 2nd week (recovery), 7 d",18000
same,number of normal cells,HME 50 HT,"the number of cells did not increase, and was merely maintained for two weeks"
same,"cell counts, Mean value",HME 50 HT; [1],14667
same,cell counts,HME 50 HT; [1],12000 and 11000 and 21000
same,"cell counts, Mean value",HME 50 HT; [2],16667
same,cell counts,HME 50 HT; [2],14000 and 23000 and 13000
same,"cell counts, Mean value",HME 50 HT; [3],11333
same,cell counts,HME 50 HT; [3],14000 and 11000 and 9000
same,"cell counts, Mean value",HME 50 HT; [4],15667
same,cell counts,HME 50 HT; [4],18000 and 11000
same,"cell counts, Mean value",HME 50 HT; [5],9000
same,cell counts,HME 50 HT; [5],9000
same,"cell counts, Mean value",HME 50 HT; [6],16667
same,cell counts,HME 50 HT; [6],17000 and 19000 and 14000
same,"cell counts, Mean value","HME 50 HT; HME, 2nd week (recovery), 0 h",16333
same,cell counts,"HME 50 HT; HME, 2nd week (recovery), 0 h",19000 and 17000 and 13000
same,"cell counts, Mean value","HME 50 HT; HME, 2nd week (recovery), 12 h",13667
same,cell counts,"HME 50 HT; HME, 2nd week (recovery), 12 h",13000 and 15000
same,"cell counts, Mean value","HME 50 HT; HME, 2nd week (recovery), 24 h",12667
same,cell counts,"HME 50 HT; HME, 2nd week (recovery), 24 h",12000 and 15000 and 11000
same,"cell counts, Mean value","HME 50 HT; HME, 2nd week (recovery), 48 h",17000
same,cell counts,"HME 50 HT; HME, 2nd week (recovery), 48 h",18000 and 16000 and 17000
same,"cell counts, Mean value","HME 50 HT; HME, 2nd week (recovery), 4 d",16333
same,cell counts,"HME 50 HT; HME, 2nd week (recovery), 4 d",18000 and 19000 and 12000
same,"cell counts, Mean value","HME 50 HT; HME, 2nd week (recovery), 7 d",16000
same,cell counts,"HME 50 HT; HME, 2nd week (recovery), 7 d",14000 and 19000 and 15000
